Measurements reported in US20080293571A1, “Insecticide organic fertilizer composition, process and method” (priority 2007, published 2008).

Test: Biodegradation of rotenone after the composition is poured onto soil
Conditions: rotenone in the composition

## C=C(C)[C@H]1Cc2c(ccc3c2O[C@@H]2COc4cc(OC)c(OC)cc4[C@@H]2C3=O)O1 [rotenone]
  Time until substantially biodegraded after pouring or drenching the nest: approximately 3 days
Stable in liquid form in the container
  Time until biodegrading after pouring the solution onto the soil: 2 to 5 days
